A short description of test [1]: Induction of anti-CD3 antibodies-stimulated human T cell activation at 1 uM assessed fold increase in IL-2 secretion measured by ELISA assay. Also: reference of the scale not given here. Format: functional, T cell line.
A short description of test [2]: Induction of anti-CD3/CD28 antibodies-stimulated human T cell activation at 1 uM assessed fold increase in CD25 expression measured by ELISA assay. Type of test: functional, T cell line.
Test [3] in a line: Induction of anti-CD3 antibodies-stimulated human T cell activation at 8 uM assessed fold increase in IL-2 secretion measured by ELISA assay. Also: reference of the scale not given here. Format: functional, T cell line.
A short description of test [4]: Induction of anti-CD3/CD28 antibodies-stimulated human T cell activation at 0.3 uM assessed fold increase in IL-2 secretion measured by ELISA assay. Type of test: functional, T cell line.
Test [5] is described as follows: Induction of anti-CD3/CD28 antibodies-stimulated human T cell activation at 0.3 uM assessed fold increase in CD25 expression measured by ELISA assay. Format: functional, T cell line.
Test [6] in a line: Induction of anti-CD3 antibodies-stimulated human T cell activation at 1 uM assessed fold increase in CD25 expression measured by ELISA assay. Also: reference of the scale not given here. Type of test: functional, T cell line.
A short description of test [7]: Induction of anti-CD3/CD28 antibodies-stimulated human T cell activation at 1 uM assessed fold increase in IL-2 secretion measured by ELISA assay. Type of test: functional, T cell line.
A short description of test [8]: Induction of anti-CD3/CD28 antibodies-stimulated human T cell activation at 4 uM assessed fold increase in CD25 expression measured by ELISA assay. Format: functional, T cell line.
A short description of test [9]: Induction of anti-CD3/CD28 antibodies-stimulated human T cell activation at 4 uM assessed fold increase in IL-2 secretion measured by ELISA assay. Format: functional, T cell line.
For test [10], the target named is E3 ubiquitin-protein ligase CBL-B (Homo sapiens, UniProt Q13191). Description: Inhibition of N-terminal Avi-tagged human CBL-B (36 to 427 residues) incubated with 60 nM Src kinase for 1.5 hrs followed by incubation with fluorescently labeled UbcH5B-Ub for 1 hr and measured by TR-FRET assay. Type of test: single protein.
A short description of test [11]: Induction of anti-CD3 antibodies-stimulated human T cell activation at 8 uM assessed fold increase in CD25 expression measured by ELISA assay. Also: reference of the scale not given here. Format: functional, T cell line.

Bounds are passed on as bounds.

E3 ubiquitin-protein ligase CBL-B, sequence (Q13191 whole entry, the tested form may be a part): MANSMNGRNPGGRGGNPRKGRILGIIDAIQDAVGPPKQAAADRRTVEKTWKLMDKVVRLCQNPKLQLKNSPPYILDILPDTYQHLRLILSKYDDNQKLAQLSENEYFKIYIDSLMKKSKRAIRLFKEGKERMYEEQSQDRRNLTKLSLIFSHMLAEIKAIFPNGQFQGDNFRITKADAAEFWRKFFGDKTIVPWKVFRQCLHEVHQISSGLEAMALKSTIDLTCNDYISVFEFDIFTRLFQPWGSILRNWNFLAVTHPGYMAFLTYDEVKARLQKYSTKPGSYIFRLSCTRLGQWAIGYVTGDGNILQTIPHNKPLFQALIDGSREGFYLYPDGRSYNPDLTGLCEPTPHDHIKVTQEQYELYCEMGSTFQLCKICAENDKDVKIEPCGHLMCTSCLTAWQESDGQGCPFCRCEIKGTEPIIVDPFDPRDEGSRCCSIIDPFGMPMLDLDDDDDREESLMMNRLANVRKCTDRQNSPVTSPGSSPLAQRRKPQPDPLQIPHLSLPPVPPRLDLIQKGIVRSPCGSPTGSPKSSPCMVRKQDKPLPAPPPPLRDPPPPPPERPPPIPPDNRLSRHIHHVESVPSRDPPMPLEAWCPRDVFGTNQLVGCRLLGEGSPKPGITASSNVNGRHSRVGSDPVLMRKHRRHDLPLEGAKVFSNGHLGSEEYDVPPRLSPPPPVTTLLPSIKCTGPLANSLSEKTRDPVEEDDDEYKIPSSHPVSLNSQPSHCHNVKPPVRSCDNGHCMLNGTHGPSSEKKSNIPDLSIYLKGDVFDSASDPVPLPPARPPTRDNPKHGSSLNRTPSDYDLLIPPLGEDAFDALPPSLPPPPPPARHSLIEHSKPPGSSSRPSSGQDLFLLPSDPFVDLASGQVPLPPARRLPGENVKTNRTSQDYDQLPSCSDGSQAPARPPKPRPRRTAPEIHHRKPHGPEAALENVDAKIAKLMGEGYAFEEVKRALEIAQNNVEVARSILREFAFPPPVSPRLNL

For the molecule `Cc1cc(C(=O)Nc2cccc([C@H](C)Cc3nocc3C)c2)nc(C2CC2)n1`, the “fold change (FC)” value in [1] was 0.051; in [2], 1.01; in [3], “>=0.201”; in [4], 1.01; in test [5], 1.01; in test [6], 0.801. Besides, the “fold change (FC)” value in test [7] was 2.51; in test [8], 1.01; in [9], 5; in test [11], “>=1.001”. This molecule also returned an IC50 in [10] of less than 100 nM.

Take `C[C@H](Cc1nncn1C)c1cccc(NC(=O)c2cccc(C(C)(C)C)n2)c1`: the “fold change (FC)” value in test [1] is listed as 0.051; in test [2], 1.01; in test [3], “>=0.201”; in test [4], 1.01; in test [5], 1.01; in test [6] it was 0.801. Also, the “fold change (FC)” value in test [7] is given as 2.51; in test [8], 1.01; in test [9], 2.51; in test [11] it was “>=1.001”. The IC50 in [10] is less than 100 nM.

For `Cn1cnnc1CC1(c2cccc(N3Cc4c(cccc4C(F)(F)F)C3=O)c2)CC1`, the “fold change (FC)” value in test [1] was 0.051; in test [2], 1.01; in test [3] it was “>=0.201”; in test [4], 2.51; in [5], “<=1”; in test [6], “>=1.001”. In addition, the “fold change (FC)” value was 2.51 in test [7], 1.01 in test [8], 5 in test [9] and “>=1.001” in test [11]. In [10], this molecule had an IC50 of less than 100 nM.

In the case of `C[C@H](Cc1nocc1C(F)(F)F)c1cccc(N2Cc3c(cc(C(=O)N4CC[C@H](F)C4)cc3C(F)(F)F)C2=O)c1`, the “fold change (FC)” value in [1] is on record as “<=0.05”; in test [2], 1.01; in test [3] it was 0.101; in test [4] it was 1.01; in test [5] it was 1.01; in test [6], 0.601. Moreover, the “fold change (FC)” value in test [7] is recorded as 1.01; in [8] it was 1.31; in [9], 2.51; in test [11], “>=1.001”. In test [10], this molecule had an IC50 not above 300 nM.

For `C[C@H](c1cc2c(c(C(F)(F)F)c1)CN(c1cccc(C3(Cc4nncn4C)COC3)c1)C2=O)N1CCC(F)(F)C1`, the “fold change (FC)” value is reported as 0.151 in [1]; 1.31 in test [2]; “>=0.201” in test [3]; 2.51 in [4]; 1.01 in [5]; “>=1.001” in test [6]. Moreover, the “fold change (FC)” value is recorded as “>=7.5” in test [7], 1.31 in test [8], “>=7.5” in test [9] and “>=1.001” in test [11]. The molecule further registered an IC50 in [10] of less than 100 nM.

Consider `C[C@H](Cc1nncn1C)c1cccc(N2Cc3c(cc(C(C)(C)O)cc3C(F)(F)F)C2=O)c1`, for which the “fold change (FC)” value in test [1] is on record as 0.101; in test [2], 1.01; in test [3] it was 0.151; in [4] it was “>=7.5”; in [5], “>=1.76”; in [6], “>=1.001”. In addition, the “fold change (FC)” value in test [7] is 2.51; in test [8], 1.31; in test [9], 5; in test [11], 0.801. Besides, the IC50 in [10] was less than 100 nM.

For `C[C@H](Cc1nncn1C)c1cccc(N2Cc3c(cc([C@@H](C)N4CC(O)C4)cc3C(F)(F)F)C2=O)c1`, the “fold change (FC)” value in test [1] is listed as “>=0.201”; in test [2], 1.31; in [3] it was “>=0.201”; in test [4] it was 2.51; in test [5], 1.01; in test [6], 0.801. For the same molecule, the “fold change (FC)” value is 5 in [7], 1.31 in test [8], “>=7.5” in [9] and “>=1.001” in [11]. In test [10], this molecule yielded an IC50 of less than 100 nM.

As for `C[C@H](Cc1nncn1C)c1cccc(N2Cc3c(cc(-c4ccn[nH]4)cc3C(F)(F)F)C2=O)c1`, the “fold change (FC)” value in [1] is listed as “>=0.201”; in test [2] it was 1.31; in test [3], “>=0.201”; in test [4] it was 2.51; in [5], 1.01; in [6], “>=1.001”. Further, the “fold change (FC)” value was 5 in test [7], 1.31 in [8], “>=7.5” in [9] and “>=1.001” in test [11]. In addition, the 50% inhibitory concentration (IC50) in test [10] was less than 100 nM.

Turning to `C[C@H]1CN(C)CCN1c1cc2c(c(C(F)(F)F)c1)CN(c1cccc([C@@](C)(F)C(F)(F)c3nncn3C)c1)C2=O`, the “fold change (FC)” value is 0.101 in [1]; 1.01 in [2]; “>=0.201” in test [3]; 1.01 in [4]; 1.01 in test [5]; “>=1.001” in test [6]. Besides, the “fold change (FC)” value in test [7] is listed as 5; in test [8], 1.31; in [9], “>=7.5”; in test [11] it was “>=1.001”. Further, the IC50 in test [10] was less than 100 nM.

`C[C@H](Cc1nncn1C)c1cccc(NC(=O)c2cc3cc(N4CCN(C)C(=O)C4)ccc3cn2)c1.O=C(O)C(F)(F)F`: the “fold change (FC)” value in [1] was “>=0.201”; in test [2], 1.31; in [3], “>=0.201”; in test [4], 5; in test [5] it was 1.31; in test [6] it was “<=0.6”. The “fold change (FC)” value in test [7] is reported as 5; in [8], 1.51; in test [9] it was “>=7.5”; in [11] it was “>=1.001”. The same molecule came in with a concentration for half-maximal inhibition (IC50) in [10] of less than 100 nM.

Consider `Cn1cnnc1CC(C)(C)c1cccc(N2Cc3c(cccc3C(F)(F)F)C2=O)c1`, for which the “fold change (FC)” value in [1] is recorded as “>=0.201”; in test [2] it was 1.01; in test [3], “>=0.201”; in test [4], 1.01; in test [5] it was 1.01; in test [6], 0.801. Besides, the “fold change (FC)” value in [7] is listed as 2.51; in test [8], 1.51; in test [9], “>=7.5”; in [11] it was “>=1.001”. The molecule further displayed an IC50 in test [10] of less than 100 nM.

Regarding `C[C@H](Cc1nncn1C)c1cccc(N2Cc3c(cc([C@H](C)N4CC(O)C4)cc3C(F)(F)F)C2=O)c1`, the “fold change (FC)” value was “>=0.201” in test [1]; 1.31 in [2]; “>=0.201” in test [3]; 5 in test [4]; 1.01 in test [5]; “>=1.001” in test [6]. For the same molecule, the “fold change (FC)” value in [7] is reported as “>=7.5”; in test [8], 1.31; in test [9], “>=7.5”; in test [11], “>=1.001”. In test [10], this molecule yielded an IC50 of less than 100 nM.

On to `C[C@@H](c1cc2c(c(C(F)(F)F)c1)CN(c1cccc([C@@](C)(F)C(F)(F)c3nncn3C)c1)C2=O)N1CC[C@H](F)C1`, for which the “fold change (FC)” value is given as “>=0.201” in [1]; 1.51 in test [2]; “>=0.201” in test [3]; “>=7.5” in test [4]; 1.31 in test [5]; “>=1.001” in [6]. Moreover, the “fold change (FC)” value in [7] was “>=7.5”; in [8], 1.51; in test [9], “>=7.5”; in test [11], “>=1.001”. This molecule registered a half-maximal inhibitory concentration (IC50) in test [10] of less than 100 nM.

Consider `C[C@H](Cc1nncn1C)c1cc(OCC(F)F)nc(N2Cc3c(cccc3C(F)(F)F)C2=O)c1`, for which the “fold change (FC)” value in [1] is on record as 0.151; in [2], 1.01; in [3], “>=0.201”; in test [4], 2.51; in [5] it was 1.01; in [6], 0.801. The “fold change (FC)” value in [7] was 2.51; in [8], 1.31; in test [9] it was “>=7.5”; in test [11], “>=1.001”. This molecule returned an IC50 in test [10] of less than 100 nM.

Consider `C[C@H](Cc1nncn1C)c1cc(NC2COC2)nc(N2Cc3c(cccc3C(F)(F)F)C2=O)c1`, for which the “fold change (FC)” value in [1] is 0.051; in test [2], 1.01; in test [3] it was “>=0.201”; in test [4], 1.01; in [5] it was 1.01; in test [6] it was 0.801. Further, the “fold change (FC)” value is reported as 1.01 in test [7], 1.31 in [8], 5 in test [9] and “>=1.001” in test [11]. In addition, the IC50 in test [10] is less than 100 nM.

The values above are taken from ChEMBL document CHEMBL5050844 (2019).
